Data taken from PubChem BioAssay (NCI).
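GI50: concentration for 50% inhibition of growth. TGI: total growth inhibition.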

What was measured:
Test in all cases: DTP human tumour cell line panel, 384-well format
[1] = tested on: A549 NSCLC
[2] = tested on: ACHN renal
[3] = tested on: BT-549 breast
[4] = tested on: CCRF-CEM leukemia
[5] = tested on: COLO 205 colon
[6] = tested on: DU-145 prostate
[7] = tested on: EKVX NSCLC
[8] = tested on: HCC-2998 colon
[9] = tested on: HCT-15 colon
[10] = tested on: HL-60(TB) leukemia
[11] = tested on: HOP-62 NSCLC
[12] = tested on: HOP-92 NSCLC
[13] = tested on: HS 578T breast
[14] = tested on: IGROV1 ovarian
[15] = tested on: KM12 colon
[16] = tested on: LOX IMVI melanoma
[17] = tested on: M14 melanoma
[18] = tested on: MCF7 breast
[19] = tested on: MDA-MB-231 breast
[20] = tested on: MDA-MB-435 melanoma
[21] = tested on: MDA-MB-468 breast
[22] = tested on: MOLT-4 leukemia
[23] = tested on: NCI-H23 lung
[24] = tested on: NCI-H322M lung
[25] = tested on: NCI-H460 NSCLC
[26] = tested on: NCI-H522 lung
[27] = tested on: OVCAR-3 ovarian
[28] = tested on: OVCAR-4 ovarian
[29] = tested on: OVCAR-5 ovarian
[30] = tested on: PC-3 prostate
[31] = tested on: RPMI-8226 leukemia
[32] = tested on: RXF 393 renal
[33] = tested on: SF-268 CNS
[34] = tested on: SF-295 CNS
[35] = tested on: SF-539 CNS
[36] = tested on: SK-MEL-5 melanoma
[37] = tested on: SK-OV-3 ovarian
[38] = tested on: SN12C renal
[39] = tested on: SNB-19 CNS
[40] = tested on: SNB-75 CNS
[41] = tested on: SR leukemia
[42] = tested on: T-47D breast
[43] = tested on: TK-10 renal
[44] = tested on: U251 glioblastoma
[45] = tested on: UACC-257 melanoma
[46] = tested on: UACC-62 melanoma
[47] = tested on: UO-31 renal

NC(=O)[C@@H](CC1CC1)[C@@H](CCC(F)(F)F)C(=O)N[C@H]1N=C(c2ccccc2)c2cccc(F)c2NC1=O showed a GI50 [1] of 15.7 µM, a TGI [1] of 49.4 µM and a GI50 [2] of 20.8 µM. For the same compound, the TGI [2] was > 64.5 µM, the GI50 [3] was 17.8 µM and the TGI [3] was 35.2 µM. For the same compound, the GI50 [4] was 9.79 µM, the TGI [4] was > 64.3 µM and the GI50 [5] was > 38.8 µM. For the same compound, the TGI [5] was > 60.3 µM, the GI50 [6] was 23.7 µM and the TGI [6] was 66.6 µM. For the same compound, the GI50 [7] was 7.61 µM, the TGI [7] was 32 µM and the GI50 [8] was 23.8 µM. The TGI [8] was 84.3 µM, the GI50 [9] was > 65.9 µM and the TGI [9] was > 100 µM. The GI50 [10] was 29.7 µM, the TGI [10] was > 100 µM and the GI50 [11] was 8.29 µM. The TGI [11] was 25 µM, the GI50 [12] was 15.5 µM and the TGI [12] was 29.6 µM. It also gave a GI50 [13] of 11.3 µM, a TGI [13] of 25.5 µM and a GI50 [14] of 16.1 µM. For the same compound, the TGI [14] was 40.4 µM, the GI50 [15] was > 51.9 µM and the TGI [15] was > 100 µM. It also gave a GI50 [16] of 11.7 µM, a TGI [16] of 38.4 µM and a GI50 [17] of 18.5 µM. It also gave a TGI [17] of 43.3 µM, a GI50 [18] of 14.6 µM and a TGI [18] of 29.1 µM. For the same compound, the GI50 [19] was 14.4 µM, the TGI [19] was 28 µM and the GI50 [20] was 19.2 µM. For the same compound, the TGI [20] was 43.7 µM, the TGI [21] was 2.52 µM and the GI50 [22] was 7.38 µM. For the same compound, the TGI [22] was 35 µM, the GI50 [23] was 9.77 µM and the TGI [23] was 30 µM. For the same compound, the GI50 [24] was 12.4 µM, the TGI [24] was 40.6 µM and the GI50 [25] was 11.6 µM. For the same compound, the TGI [25] was > 48.4 µM, the GI50 [26] was 15.2 µM and the TGI [26] was 30.5 µM. It also gave a GI50 [27] of 14.4 µM, a TGI [27] of 29 µM and a GI50 [28] of 13.3 µM. For the same compound, the TGI [28] was 28.1 µM, the GI50 [29] was 18.5 µM and the TGI [29] was 47.1 µM. For the same compound, the GI50 [30] was 17.6 µM, the TGI [30] was 34.2 µM and the GI50 [31] was 16.2 µM. It also gave a TGI [31] of 36.2 µM, a GI50 [32] of 7.3 µM and a TGI [32] of 22.6 µM. For the same compound, the GI50 [33] was 7.01 µM, the TGI [33] was 24.3 µM and the GI50 [34] was 17.8 µM. It also gave a TGI [34] of 37.2 µM, a GI50 [35] of 15.4 µM and a TGI [35] of 29 µM. It also gave a GI50 [36] of 9.41 µM, a TGI [36] of 24.1 µM and a GI50 [37] of 14.9 µM. For the same compound, the TGI [37] was 28.5 µM, the GI50 [38] was 16.2 µM and the TGI [38] was 31.2 µM. The GI50 [39] was 14.7 µM, the TGI [39] was 28.9 µM and the GI50 [40] was 10.7 µM. For the same compound, the TGI [40] was 25.4 µM, the GI50 [41] was 13.9 µM and the TGI [41] was 27.1 µM. It also gave a GI50 [42] of 1.94 µM, a TGI [42] of 17.7 µM and a GI50 [43] of 16.5 µM. The TGI [43] was 33 µM, the GI50 [44] was 17.7 µM and the TGI [44] was 34 µM. For the same compound, the GI50 [45] was 5.76 µM, the TGI [45] was 24.6 µM and the GI50 [46] was 14.7 µM. The TGI [46] was 28.7 µM, the GI50 [47] was 17.6 µM and the TGI [47] was 69.1 µM.
